The text below walks through data of patent US20250052744A1, “Dyes and Uses Thereof” (The University of Liverpool, priority 2021, published 2025).

Holding throughout (assay): Qualitative dye staining on agarose pads (EVOS M7000)
Holding throughout (type): cell-based
Common to all, as to set-up: key to Relative fluorescent intensity: Very high: If the cells looked twice as big in the fluorescent channel, it was marked as having “very high” relative fluorescent intensity; High: if the cells looked bigger in the fluorescent channel, it was marked as having “high” relative fluorescent intensity; Medium: If the cells looked almost the same size in the fluorescent channel and the bright field, it was marked as having “medium” relative fluorescent intensity; Low: If the cells looked smaller in the fluorescent channel as compared to the brightfield but still the whole cell was visible, it was marked as having “low” relative fluorescent intensity; Negligible: If only a few traces of a cell was visible in the fluorescent channel, it was marked as having “negligible” relative fluorescent intensity

In one assay the test system is Klebsiella pneumoniae. The settings on record: DiSC3(5) 3 μM, SYBR Green I 10×, SYTO 13 3 μM, FM4-64 15 μM. The procedure:
(§1) An overnight culture was prepared by inoculating a bacterial colony in approximately 5 ml of Urine and incubating the culture in an orbital shaker at 37° C.
(§2) The following media and materials were utilised: Cation-adjusted Mueller Hinton broth (MHB); Phosphate Buffered Saline (PBS); Membrane staining dye—FM4-64 (1.5 mM); Live cell staining dye—DiSC3(5) (1 mM); DNA staining dye—SYBR Green (1000×); DNA staining dye—SYTO 13 (0.5 mM); Ultrapure Agarose; Parafilm; Glass slides and coverslips; Scalpel; and EVOS M7000 fluorescent microscope.
(§3) A pre-cut parafilm or a coverslip was used as a guide and 22 mm×22 mm squares cut from parafilm. A square was cut out of the centre of the parafilm (approximately 10 mm×10 mm). The centre of the cut-out was discarded. Two parafilm gaskets were placed onto a cleaned glass slide. The glass slide was then placed on a dry bath set to 56° C. so that the parafilm adhered to the glass slide. The glass slide was then kept on the dry bath. Using a microwave, ultrapure agarose was dissolved in PBS at a concentration of 1.2%. The agarose solution was kept on a dry bath set at 56° C. 60 μl of the agarose solution was pipetted in the centre of the parafilm gaskets. A coverslip was then placed over the gaskets without applying pressure on the coverslip. The slide was then placed on a cool surface and left to solidify for 1-2 minutes. The coverslips were then gently lifted off the agarose pads.
(§4) In a first Eppendorf, 15 μl of FM4-64 and 6 μl of SYTO 13 was added and in a second Eppendorf 10 μl of SYBR Green and 3 μl of DiSC3(5) was added. Depending on the bacterial growth in urine, an appropriate concentration of the bacterial culture was placed in the two Eppendorfs (final bacterial concentration 10^6 CFU/ml). MHB was added so as to achieve a final volume of 1 ml. Final concentrations of the dyes in the sample was as follows: DiSC3(5): 3 μM; SYBR Green I: 10× (originally supplied as 10,000×); SYTO 13: 3 μM; and FM4-64: 15 μM
(§5) 4 μl of the contents of each Eppendorf were deposited on one agarose pad and the cells distributed across the agar surface by tilting the slide. The slide was left to dry for approximately 1 minute. A coverslip was then placed on top of the agarose pad. The slide was placed inside the microscope and incubated at 37° C. for 10 minutes. Using different light filters for each dye, an image of each pad at 40× magnification on an EVOS M7000 fluorescent microscope was captured. Eight images for each agarose pad was recorded (i.e. 8 each for brightfield and 2 fluorescent channels). For each agarose pad, 24 images were recorded. This corresponded to 48 images in total for each bacterial strain (2 agarose pads per strain). Table A below was used to take the images using the correct fluorescent channel and intensity (for imagining on any other instrument, the LED intensity will need to be normalised against the EVOS M7000).
(§6) To qualitatively calculate the relative fluorescent intensities, cell size was compared between brightfield and the fluorescent channel for a given fluorescent dye. If the cells are very fluorescent, they will appear bigger in the fluorescent channel as compared to the bright field. For our qualitative measurements, if the cells looked bigger in the fluorescent channel, it was marked as having “high” relative fluorescent intensity. If the cells looked twice as big in the fluorescent channel, it was marked as having “very high” relative fluorescent intensity. If the cells looked almost the same size in the fluorescent channel and the bright field, it was marked as having “medium” relative fluorescent intensity. If the cells looked smaller in the fluorescent channel as compared to the brightfield but still the whole cell was visible, it was marked as having “low” relative fluorescent intensity. If only a few traces of a cell was visible in the fluorescent channel, it was marked as having “negligible” relative fluorescent intensity.

In assay [1] the test system is Staphylococcus saprophyticus. To be noted: DiSC3(5) 3 μM, SYBR Green I 10×, SYTO 13 3 μM, FM4-64 15 μM. As for the experimental part:
as §1, §2, §3, §4, §5, §6

The subject of another assay is Klebsiella. To be noted: Table 6 thresholds, DiSC3(5) 3 μM, SYBR Green I 10×, SYTO 13 3 μM, FM4-64 15 μM. The procedure: as §1, §2, §3, §4, §5, §6
Where [2] appears, read: Table 7 commercial strain Klebsiella pneumoniae NCTC 9633.
[3] abbreviates: Table 7 commercial strain Klebsiella pneumoniae NCTC 14335.
Setting [4] is: Table 8 sample Klebsiella pneumoniae (094).
[5] abbreviates: Table 8 sample Klebsiella pneumoniae (095).
The mark [6] stands for this setting: Table 6 thresholds, Staphylococcus saprophyticus.
Setting [7] is: Table 7 commercial strain S. saprophyticus NCTC 13634.
[8] abbreviates: Table 8 sample Staphylococcus saprophyticus (047).
Where [9] appears, read: Table 8 sample Staphylococcus saprophyticus (048).
Setting [10] is: Table 8 sample Staphylococcus saprophyticus (049).

In the case of `CCCN1C(=CC=CC=Cc2sc3ccccc3[n+]2CCC)Sc2ccccc21.[I-]` [DiSC3(5), 3,3′-Dipropylthiadicarbocyanine Iodide], the “Percentage of cells stained” value in the assay on Klebsiella pneumoniae (setting [2]) is reported as “Half”; with Klebsiella pneumoniae (setting [3]), “Almost all”; in the assay with Klebsiella pneumoniae (setting [4]) it was “Half”; with Klebsiella pneumoniae (setting [5]), “Almost all”; in assay [1] (setting [6]), “Almost all”; in assay [1] (setting [7]) it was “Almost all”. The “Percentage of cells stained” value in assay [1] (setting [8]) is “Almost all”; in assay [1] (setting [9]), “Almost all”; in assay [1] (setting [10]) it was “Almost all”; in the assay with Klebsiella, “Few”. The Relative fluorescent intensity result in the assay on Klebsiella pneumoniae (setting [2]) is “Low”; with Klebsiella pneumoniae (setting [3]), “Low”; in the assay with Klebsiella pneumoniae (setting [4]) it was “Low”; in the assay with Klebsiella pneumoniae (setting [5]), “Low”; in assay [1] (setting [6]), “high and High”; in assay [1] (setting [7]), “High”. The Relative fluorescent intensity entry was “High” in assay [1] (setting [8]), “High” in assay [1] (setting [9]), “High” in assay [1] (setting [10]) and “Low-Medium” in the assay on Klebsiella.
Regarding `CCN(CC)c1ccc(C=CC=CC=Cc2cc[n+](CCC[N+](CC)(CC)CC)cc2)cc1.[Br-].[Br-]` [FM 4-64, N-(3-Triethylammoniumpropyl)-4-(6-(4-(Diethylamino) Phenyl) Hexatrienyl) Pyridinium Dibromide], the “Percentage of cells stained” value in the assay on Klebsiella pneumoniae (setting [2]) is “Few”; with Klebsiella pneumoniae (setting [3]) it was “Half”; with Klebsiella pneumoniae (setting [4]) it was “Few”; with Klebsiella pneumoniae (setting [5]), “Few”; in assay [1] (setting [6]), “Almost all”; in assay [1] (setting [7]), “Almost all”. Also, the “Percentage of cells stained” value was “Almost all” in assay [1] (setting [8]), “Almost all” in assay [1] (setting [9]), “Almost all” in assay [1] (setting [10]) and “Few” in the assay with Klebsiella. For the same molecule, the Relative fluorescent intensity entry was “Low” in the assay on Klebsiella pneumoniae (setting [2]); “Low” in the assay on Klebsiella pneumoniae (setting [3]); “Low” in the assay with Klebsiella pneumoniae (setting [4]); “Low” in the assay on Klebsiella pneumoniae (setting [5]); “High” in assay [1] (setting [6]); “High” in assay [1] (setting [7]). Besides, the Relative fluorescent intensity entry is “High” in assay [1] (setting [8]), “High” in assay [1] (setting [9]), “High” in assay [1] (setting [10]) and “Low” in the assay with Klebsiella.
Regarding `CCCN(CCCN(C)C)c1cc(/C=C2/Sc3ccccc3N2C)c2ccccc2[n+]1-c1ccccc1` [SYBR Green I, N′,N′-dimethyl-N-[4-[(E)-(3-methyl-1,3-benzothiazol-2-ylidene)methyl]-1-phenylquinolin-1-ium-2-yl]-N-propylpropane-1,3-diamine], the “Percentage of cells stained” value with Klebsiella pneumoniae (setting [2]) is recorded as “Half”; with Klebsiella pneumoniae (setting [3]), “Almost all”; with Klebsiella pneumoniae (setting [4]), “Half”; with Klebsiella pneumoniae (setting [5]), “Almost all”; in assay [1] (setting [6]) it was “Almost all”; in assay [1] (setting [7]), “Almost all”. Also, the “Percentage of cells stained” value in assay [1] (setting [8]) is recorded as “Almost all”; in assay [1] (setting [9]) it was “Almost all”; in assay [1] (setting [10]) it was “Almost all”; in the assay on Klebsiella it was “Few”. For the same molecule, the Relative fluorescent intensity result in the assay with Klebsiella pneumoniae (setting [2]) is on record as “Low”; with Klebsiella pneumoniae (setting [3]), “Low”; in the assay on Klebsiella pneumoniae (setting [4]), “Low”; in the assay on Klebsiella pneumoniae (setting [5]), “Low”; in assay [1] (setting [6]), “High”; in assay [1] (setting [7]) it was “High”. The Relative fluorescent intensity entry in assay [1] (setting [8]) is given as “High”; in assay [1] (setting [9]), “High”; in assay [1] (setting [10]), “High”; in the assay with Klebsiella, “Low”.
